Measured values: patent US10722520B2, “Heterocyclic compounds and their use in preventing or treating bacterial infections” (MUTABILIS, priority 2016, dated 2020)

Columns and labels:
CMY-37 = CMY-37 (Citrobacter freundii, UniProt P05193); conditions: read-out: IC50 β-lactamase CMY-37; class (C); nitrocefin 200 μM, 30-min pre-incubation, enzyme 0.2 nM
K. pneumoniae 200047 = assay: MIC of ceftazidime (CAZ) at fixed concentration of compound (synergy), broth microdilution; assay type: cell-based; conditions: MIC of ceftazidime with compound fixed at 4 μg/mL; strain 200047 (K. pneumoniae)
Outline: (§1)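 Exponential-phase inoculum, 5×10^5 cfu/mL final, in cation-supplemented MHB; 35° C in air for 16-20 h. MIC: lowest concentration giving no visible growth.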

E. coli UFR74 = assay: as above; assay type: cell-based; conditions: MIC of ceftazidime with compound fixed at 4 μg/mL; strain UFR74 (E. coli)
Outline: as §1

E. cloacae UFR70 = assay: as above; assay type: cell-based; conditions: MIC of ceftazidime with compound fixed at 4 μg/mL; strain UFR70 (E. cloacae)
Outline: as §1

E. coli UFR32 = assay: as above; assay type: cell-based; conditions: MIC of ceftazidime with compound fixed at 4 μg/mL; strain UFR32 (E. coli)
Outline: as §1

E. cloacae 260508 = assay: as above; assay type: cell-based; conditions: MIC of ceftazidime with compound fixed at 4 μg/mL; strain 260508 (E. cloacae)
Outline: as §1

E. coli 131119 = assay: as above; assay type: cell-based; conditions: MIC of ceftazidime with compound fixed at 4 μg/mL; strain 131119 (E. coli)
Outline: as §1

K. pneumoniae BAA-1898 = assay: as above; assay type: cell-based; conditions: MIC of ceftazidime with compound fixed at 4 μg/mL; strain BAA-1898 (K. pneumoniae)
Outline: as §1

K. pneumoniae UFR68 = assay: as above; assay type: cell-based; conditions: MIC of ceftazidime with compound fixed at 4 μg/mL; strain UFR68 (K. pneumoniae)
Outline: as §1

E. cloacae P99 = assay: as above; assay type: cell-based; conditions: MIC of ceftazidime with compound fixed at 4 μg/mL; strain P99 (E. cloacae)
Outline: as §1

P. aeruginosa CIP107051 [1] = assay: as above; assay type: cell-based; conditions: MIC of ceftazidime with compound fixed at 4 μg/mL; strain CIP107051 (P. aeruginosa)
Outline: as §1

E. coli UFR18 = assay: as above; assay type: cell-based; conditions: MIC of ceftazidime with compound fixed at 4 μg/mL; strain UFR18 (E. coli)
Outline: as §1

E. coli RGN238 = assay: as above; assay type: cell-based; conditions: MIC of ceftazidime with compound fixed at 4 μg/mL; strain RGN238 (E. coli)
Outline: as §1

K. pneumoniae UFR24 = assay: as above; assay type: cell-based; conditions: MIC of ceftazidime with compound fixed at 4 μg/mL; strain UFR24 (K. pneumoniae)
Outline: as §1

K. oxytoca UFR21 = assay: as above; assay type: cell-based; conditions: MIC of ceftazidime with compound fixed at 4 μg/mL; strain UFR21 (K. oxytoca)
Outline: as §1

E. cloacae UFR85 = assay: as above; assay type: cell-based; conditions: MIC of ceftazidime with compound fixed at 4 μg/mL; strain UFR85 (E. cloacae)
Outline: as §1

E. coli UFR41 = assay: as above; assay type: cell-based; conditions: MIC of ceftazidime with compound fixed at 4 μg/mL; strain UFR41 (E. coli)
Outline: as §1

E. coli UFR39 = assay: as above; assay type: cell-based; conditions: MIC of ceftazidime with compound fixed at 4 μg/mL; strain UFR39 (E. coli)
Outline: as §1

E. coli UFR61O = assay: as above; assay type: cell-based; conditions: MIC of ceftazidime with compound fixed at 4 μg/mL; strain UFR61O (E. coli)
Outline: as §1

K. pneumoniae 160143 = assay: as above; assay type: cell-based; conditions: MIC of ceftazidime with compound fixed at 4 μg/mL; strain 160143 (K. pneumoniae)
Outline: as §1

K. pneumoniae 6299 [2] = assay: as above; assay type: cell-based; conditions: MIC of ceftazidime with compound fixed at 4 μg/mL; strain 6299 (K. pneumoniae)
Outline: as §1

E. cloacae UFR51 = assay: as above; assay type: cell-based; conditions: MIC of ceftazidime with compound fixed at 4 μg/mL; strain UFR51 (E. cloacae)
Outline: as §1

K. pneumoniae UFR77 = assay: as above; assay type: cell-based; conditions: MIC of ceftazidime with compound fixed at 4 μg/mL; strain UFR77 (K. pneumoniae)
Outline: as §1

E. coli 190317 = assay: as above; assay type: cell-based; conditions: MIC of ceftazidime with compound fixed at 4 μg/mL; strain 190317 (E. coli)
Outline: as §1

P. aeruginosa CIP107051 [3] = assay: MIC of compound alone, broth microdilution; assay type: cell-based; conditions: Pseudomonas aeruginosa, CIP107051, read-out: MIC compounds of the invention alone
Outline: as §1

K. pneumoniae 6299 [4] = assay: MIC of compound alone, broth microdilution; assay type: cell-based; conditions: Klebsiella pneumoniae, 6299, read-out: MIC compounds of the invention alone
Outline: as §1

CMY-37, sequence (P05193 21-381 limits assumed): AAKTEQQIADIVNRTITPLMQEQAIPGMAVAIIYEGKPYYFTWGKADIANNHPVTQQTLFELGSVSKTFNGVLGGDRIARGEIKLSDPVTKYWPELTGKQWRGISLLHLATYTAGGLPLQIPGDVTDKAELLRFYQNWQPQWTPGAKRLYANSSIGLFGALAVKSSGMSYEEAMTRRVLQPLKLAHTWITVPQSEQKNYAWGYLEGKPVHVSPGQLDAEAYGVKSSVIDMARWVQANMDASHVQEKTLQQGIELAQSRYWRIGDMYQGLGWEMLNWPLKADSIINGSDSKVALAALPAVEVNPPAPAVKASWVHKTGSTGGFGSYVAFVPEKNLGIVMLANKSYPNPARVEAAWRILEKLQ

For `O=C1N2CC(n3cccn3)=CC(C2)N1OC(F)(F)C(=O)[O-].[Li+]` (centres unmarked) [Example 4, lithium difluoro-(7-oxo-3-pyrazol-1-yl-1,6-diaza-bicyclo[3.2.1]oct-3-en-6-yloxy)-acetate], the IC50 (CMY-37) was 150 nM, the “MIC combination of CAZ and compounds of the invention at 4 μg/mL” value (shortened to “MIC combination”) (K. pneumoniae 200047) was <0.25 and the “MIC combination” value (E. coli UFR74) was <0.25. For the same compound, the “MIC combination” value (E. cloacae UFR70) was <0.25, the “MIC combination” value (E. coli UFR32) was <0.25 and the “MIC combination” value (E. cloacae 260508) was ≤0.25. The “MIC combination” value (E. coli 131119) was <0.25, the “MIC combination” value (K. pneumoniae BAA-1898) was 0.5 and the “MIC combination” value (K. pneumoniae UFR68) was 4. For the same compound, the “MIC combination” value (E. cloacae P99) was ≤0.25, the “MIC combination” value (P. aeruginosa CIP107051 [1]) was 4 and the “MIC combination” value (E. coli UFR18) was <0.25. The “MIC combination” value (E. coli RGN238) was <0.25, the “MIC combination” value (K. pneumoniae UFR24) was 0.5 and the “MIC combination” value (K. oxytoca UFR21) was 4. The “MIC combination” value (E. cloacae UFR85) was 1, the “MIC combination” value (E. coli UFR41) was <0.25 and the “MIC combination” value (E. coli UFR39) was <0.25. The “MIC combination” value (E. coli UFR61O) was <0.25, the “MIC combination” value (K. pneumoniae 160143) was <0.25 and the “MIC combination” value (K. pneumoniae 6299 [2]) was ≤0.25. The “MIC combination” value (E. cloacae UFR51) was <0.25, the “MIC combination” value (K. pneumoniae UFR77) was <0.25 and the “MIC combination” value (E. coli 190317) was <0.25. For the same compound, the MIC (P. aeruginosa CIP107051 [3]) was > 32 µg/mL and the MIC (K. pneumoniae 6299 [4]) was 16 µg/mL.
